Source: US20240076347A1, “METHODS FOR PREVENTING FUNGAL INFECTIONS” (Cidara Therapeutics, Inc., priority 2016, published 2024)
Like-named read-outs stand apart in the source and are kept apart here. Numbered stars: 1 amine (or outer) side, 2 acyl side, 3 side chain; on linkers, the order of the positions; unused ones are H or OH. Bridge positions count the residues as written; N and C are the ends. Square brackets hold non-standard residues; d marks the D form. Peptide text beside a SMILES is read from it. * marks the point of attachment. ξ: configuration not given here. Orn(4R-OH,5R-OCH2CH2NMe3+) = C[N+](C)(C)CCO[C@@H](N[*:3])[C@H](O)C[C@H](N[*:1])C(=O)[*:2]; pTerphenylCO(4''-OnC5H11) = CCCCCOc1ccc(-c2ccc(-c3ccc(C(=O)*)cc3)cc2)cc1; hTyr(3S-OH,4S-OH) = N[C@H](C(=O)O)[C@H](O)[C@@H](O)c1ccc(O)cc1; X1 = C[C@H]1CN([*:1])C(C(=O)[*:2])C1O; Hyp = O=C(O)[C@@H]1C[C@@H](O)CN1; ξT = CC(O)C(N)C(=O)O

How the values were obtained:
[1] = tested on: A. fumigatus (ATCC 13073); experiment: Disseminated infection of neutropenic ICR mice, prophylaxis, survival; assay type: in vivo, Aspergillus fumigatus
Experimental: Inoculum Preparation. A. fumigatus (ATCC 13073) growth was taken from 96 hr potato dextrose agar (PDA) and re-suspended in 0.1% Tween 20. The culture was resuspended in 1 mL cold PBS (>1.0×10^8 CFU/mL, OD620 2.3-2.8). The culture was then diluted in PBS to final cellular densities of 2.0×10^5 CFU/mL. The actual colony counts were determined by plating dilutions on PDA plates to confirm inoculation concentration. The actual inoculum count was 1.85×10^5 CFU/mL.
A. fumigatus (ATCC 13073) disseminated infection (IV). Groups of 6 female ICR mice weighing 22±2 g were used. Animals were immunosuppressed by three intraperitoneal (IP) injections of cyclophosphamide (the first at 6 mg/mouse 3 days before inoculation, the second and third at 2 mg/mouse on Day 1 then Day 4 after inoculation). On Day 0, animals were inoculated (0.1 mL/mouse) by intravenous (IV) injection into the tail vein with A. fumigatus (ATCC 13073), 1.85×10^4 CFU per mouse. CD101 at 5, 10 and 20 mg/kg as prophylaxis was administered subcutaneously (SC) once starting 5, 3 or 1 day before inoculation. […]
A 50 percent or more (≥50%) increase in the survival rate compared to the vehicle control group indicates significant anti-infective activity. The health observations including body weight, hunched posture, ruffled fur, immobility and hypothermia were recorded daily for 14 days. Animals found moribund were to be humanely sacrificed with CO2 asphyxiation in the study.

[2] = Early pharmacokinetic studies, SC tolerability; assay type: in vivo, rats and monkeys; conditions: lower doses (≤5 mg/kg)
C. parapsilosis = experiment: Neutropenic murine disseminated candidiasis model, PK/PD target determination; assay type: in vivo, Candida parapsilosis; conditions: for Static dose: single IP dose, 168 h
Experimental: Infection model. A neutropenic, murine, disseminated candidiasis model was used for the treatment studies. The mice were rendered neutropenic (polymorphonuclear cell count, <100/mm3) by injecting 150 mg/kg of cyclophosphamide (Mead Johnson Pharmaceuticals, Evansville, IN) subcutaneously 4 days before infection, 100 mg/kg of cyclophosphamide 1 day before infection, and additional cyclophosphamide doses (100 mg/kg) on Day 2 and Day 4 after infection to ensure neutropenia throughout the 168 h (7 d) study period. Three mice were included in each treatment and control group.
The organisms were subcultured on SDA plates 24 h prior to infection. The inoculum was prepared by placing 3 to 5 colonies into 5 ml of sterile pyrogen-free 0.15 M NaCl warmed to 35° C. The final inoculum was adjusted to a 0.6 transmittance at 530 nm. The fungal count of the inoculum determined by viable counts on SDA was 6.1±0.2 log10 CFU/ml.
Disseminated infection with the Candida strains was achieved by injection of 0.1 ml of the inoculum via the lateral tail vein 2 h prior to the start of antifungal therapy. At the end of the study period, the animals were sacrificed by CO2 asphyxiation. The kidneys of each mouse were aseptically removed and placed in 0.15 M NaCl at 4° C. The kidneys were homogenized and serially diluted 1:10, and the aliquots were plated onto SDA for viable fungal colony counts after incubation for 24 h at 35° C. The lower limit of detection was 100 CFU/ml. The results are expressed as the mean CFU/kidney for three mice.
Treatment efficacy and pharmacodynamic target determination of CD101. Neutropenic mice were infected with one of 10 Candida strains as described above. […] Five dose levels that varied from 0.25 to 64 mg/kg were administered once in a 0.2-ml volume by IP route for the 168 h study period. Due to enhanced effect against single isolate, additional studies at 0.0156 and 0.0625 mg/kg was examined for C. glabrata 5592. Groups of three mice were used for each dosing regimen and control group. At the end of the treatment period (168 h), the mice were euthanized, and their kidneys were immediately processed for CFU determination as described above.
Data analysis. A sigmoid dose-effect (Hill) model was used to measure the in vivo potency of CD101. The efficacy endpoints included the dose level required to produce a 24 h net static effect (no change in organism burden compared to that at the start of therapy) and the dose required to achieve a 1-log10 reduction in colony counts (relative to the burden at the start of therapy), when achieved. The maximum response (Emax) was measured as the difference in the number of CFU/kidney relative to that of the untreated control animals. The doses associated with the stasis and 1-log10 endpoint for each strain was calculated using the equation: log10 D=[log10 (E/(Emax−E))/N]+log10 ED50, where D is the drug dose, E is the control growth in untreated animals, Emax is the maximal effect, Nis the slope of the dose-response relationship, and ED50 is the dose needed to achieve 50% of the maximal effect. The associated AUC/MIC targets were then calculated for each strain. […] The calculations were performed using both total and free drug concentrations. The coefficient of determination (R^2) was used to estimate the variance that might be due to regression with the PK/PD index. Kruskal-Wallis one-way analysis of variance (ANOVA) was used to determine if the differences in PK/PD targets were significant between the species.

[3] = Single-dose plasma pharmacokinetics in mice, IP; assay type: in vivo; conditions: IP doses of 1, 4, 16 and 64 mg/kg; for half-life: read-out: elimination half-life, range
Experimental: Pharmacokinetics. […] Plasma from groups of three mice per time point (1, 3, 6, 12, 24, 48, and 72-h) was collected. The plasma drug concentrations were determined by liquid chromatography-tandem mass spectrometry. A noncompartmental model was used in the pharmacokinetic analysis. Elimination half-life was calculated by nonlinear least-squares technique. The area under the concentration-time curve (AUC) was calculated by the trapezoidal rule. Pharmacokinetic exposures for doses not directly measured in the PK study were estimated by linear extrapolation for higher and lower dose levels and by interpolation for dose levels within the dose range studied given the linear PK results. Protein binding was 99.2%.

[4] = 5, 10 and 20 mg/kg SC on Day −5, −3 and −1
[5] = only two strains achieved the endpoint

For CCCCCOc1ccc(-c2ccc(-c3ccc(C(=O)N[C@H]4C[C@@H](O)[C@@H](OCC[N+](C)(C)C)NC(=O)C5C(O)[C@@H](C)CN5C(=O)[C@H]([C@@H](C)O)NC(=O)[C@H]([C@H](O)[C@@H](O)c5ccc(O)cc5)NC(=O)[C@@H]5C[C@@H](O)CN5C(=O)C(C(C)O)NC4=O)cc3)cc2)cc1 (stereo partly drawn) [CD101] ({pTerphenylCO(4''-OnC5H11)}-[Orn(4R-OH,5R-OCH2CH2NMe3+)][ξT][Hyp][hTyr(3S-OH,4S-OH)]T[X1]; lactam 1-C), the 14-day survival ([1]; 5 mg/kg SC 1 hr after infection) was “significant increase in the 14-day survival”, the “increase in the 14-day survival compared to the vehicle group” value [1, 4] was at least 50% and the “symptoms of infection (body weight, hunched posture, ruffled fur, immobility, hypothermia)” value [1, 4] was “improved”. The “tolerability of subcutaneous administration” value [2] was “well-tolerated”, the “Stasis 24 h Ave free drug AUC/MIC” value (C. parapsilosis; 20423.072) was 1.39 and the “Stasis free drug AUC0-168 h/MIC” value (C. parapsilosis; 20423.072) was 9.74. The “Stasis total drug AUC0-168 h/MIC” value (C. parapsilosis; 20423.072) was 1217.49, the Static dose (C. parapsilosis; 20423.072) was 9.62 mg/kg and the “Stasis 24 h Ave free drug AUC/MIC” value (C. parapsilosis; 20477.048) was 3.82. For the same compound, the “Stasis free drug AUC0-168 h/MIC” value (C. parapsilosis; 20477.048) was 26.72, the “Stasis total drug AUC0-168 h/MIC” value (C. parapsilosis; 20477.048) was 3339.42 and the Static dose (C. parapsilosis; 20477.048) was 52.96 mg/kg. The “median stasis 24 h free drug AUC/MIC target” value (C. parapsilosis; [5]) was 2.61, the “median stasis free drug AUC0-168/MIC target” value (C. parapsilosis; [5]) was 18.2 and the AUC ([3]; ICR Swiss/CD1, mouse, read-out: AUC0-, range) was 93.2 to 40500 µg·h/mL. The Cmax ([3]; ICR Swiss/CD1, mouse, read-out: Peak (Cmax) levels, range) was 2600 to 76700 ng/mL, the half-life ([3]; ICR Swiss/CD1, mouse) was 28 to 41 h and the half-life ([3]; mouse) was 29 to 41 h.
